The values that follow are results of earlier work, collected in patent US20260115234A1, “PRODUCTION & SECRETION OF AUXIN-LIKE MOLECULES IN BACTERIA” (SNIPR Biome ApS, priority 2023, published 2026).

Converted amounts (≈) assume the structure as drawn.

The first data set deals with RFP reporter in strain TG1. To be noted: relative fluorescence of plasmids in strain TG1 grown in LB media to saturation.
In the case of “BBa_J23103: Anderson Promoter Collection promoter, Seq ID No: 8 (DNA CTGATAGCTAGCTCAGTCCTAGGGATTATGCTAGC; expressed or natural sequence)”, the “Measured Strength (Anderson Score)” value is recorded as 0.01.
Regarding “BBa_J23104: Anderson Promoter Collection promoter, Seq ID No: 9 (DNA TTGACAGCTAGCTCAGTCCTAGGTATTGTGCTAGC; expressed or natural sequence)”, the “Measured Strength (Anderson Score)” value is given as 0.72.
As for “BBa_J23110: Anderson Promoter Collection promoter, Seq ID No: 15 (DNA TTTACGGCTAGCTCAGTCCTAGGTACAATGCTAGC; expressed or natural sequence)”, the “Measured Strength (Anderson Score)” value is given as 0.33.
“BBa_J23109: Anderson Promoter Collection promoter, Seq ID No: 14 (DNA TTTACAGCTAGCTCAGTCCTAGGGACTGTGCTAGC; expressed or natural sequence)”: the “Measured Strength (Anderson Score)” value is recorded as 0.04.
Turning to “BBa_J23108: Anderson Promoter Collection promoter, Seq ID No: 13 (DNA CTGACAGCTAGCTCAGTCCTAGGTATAATGCTAGC; expressed or natural sequence)”, the “Measured Strength (Anderson Score)” value was 0.51.
In the case of “BBa_J23102: Anderson Promoter Collection promoter, Seq ID No: 7 (DNA TTGACAGCTAGCTCAGTCCTAGGTACTGTGCTAGC; expressed or natural sequence)”, the “Measured Strength (Anderson Score)” value is 0.86.
Regarding “BBa_J23112: Anderson Promoter Collection promoter, Seq ID No: 17 (DNA CTGATAGCTAGCTCAGTCCTAGGGATTATGCTAGC; expressed or natural sequence)”, the “Measured Strength (Anderson Score)” value is listed as 0.
As to “BBa_J23100: Anderson Promoter Collection constitutive promoter, Seq ID No: 5 (DNA TTGACGGCTAGCTCAGTCCTAGGTACAGTGCTAGC; expressed or natural sequence)”, the “Measured Strength (Anderson Score)” value is on record as 1.
On to “BBa_J23113: Anderson Promoter Collection promoter, Seq ID No: 18 (DNA CTGATGGCTAGCTCAGTCCTAGGGATTATGCTAGC; expressed or natural sequence)”, for which the “Measured Strength (Anderson Score)” value is on record as 0.01.
With “BBa_J23105: Anderson Promoter Collection promoter, Seq ID No: 10 (DNA TTTACGGCTAGCTCAGTCCTAGGTACTATGCTAGC; expressed or natural sequence)”, the “Measured Strength (Anderson Score)” value is 0.24.
Turning to “BBa_J23117: Anderson Promoter Collection promoter, Seq ID No: 22 (DNA TTGACAGCTAGCTCAGTCCTAGGGATTGTGCTAGC; expressed or natural sequence)”, the “Measured Strength (Anderson Score)” value is listed as 0.06.
With “BBa_J23106: Anderson Promoter Collection promoter, Seq ID No: 11 (DNA TTTACGGCTAGCTCAGTCCTAGGTATAGTGCTAGC; expressed or natural sequence)”, the “Measured Strength (Anderson Score)” value is 0.47.
Turning to “BBa_J23107: Anderson Promoter Collection promoter, Seq ID No: 12 (DNA TTTACGGCTAGCTCAGCCCTAGGTATTATGCTAGC; expressed or natural sequence)”, the “Measured Strength (Anderson Score)” value is reported as 0.36.
Turning to “BBa_J23118: Anderson Promoter Collection promoter, Seq ID No: 23 (DNA TTGACGGCTAGCTCAGTCCTAGGTATTGTGCTAGC; expressed or natural sequence)”, the “Measured Strength (Anderson Score)” value is on record as 0.56.
Turning to “BBa_J23115: Anderson Promoter Collection promoter, Seq ID No: 20 (DNA TTTATAGCTAGCTCAGCCCTTGGTACAATGCTAGC; expressed or natural sequence)”, the “Measured Strength (Anderson Score)” value is on record as 0.15.
In the case of “BBa_J23101: Anderson Promoter Collection promoter, Seq ID No: 6 (DNA TTTACAGCTAGCTCAGTCCTAGGTATTATGCTAGC; expressed or natural sequence)”, the “Measured Strength (Anderson Score)” value is reported as 0.7.
For the molecule “BBa_J23114: Anderson Promoter Collection promoter, Seq ID No: 19 (DNA TTTATGGCTAGCTCAGTCCTAGGTACAATGCTAGC; expressed or natural sequence)”, the “Measured Strength (Anderson Score)” value was 0.1.
As for “BBa_J23111: Anderson Promoter Collection promoter, Seq ID No: 16 (DNA TTGACGGCTAGCTCAGTCCTAGGTATAGTGCTAGC; expressed or natural sequence)”, the “Measured Strength (Anderson Score)” value is listed as 0.58.
In the case of “BBa_J23116: Anderson Promoter Collection promoter, Seq ID No: 21 (DNA TTGACAGCTAGCTCAGTCCTAGGGACTATGCTAGC; expressed or natural sequence)”, the “Measured Strength (Anderson Score)” value was 0.16.

A further data set concerns A549 human lung cancer cells.
Conditions: not given
As for `O=C(O)c1c[nH]c2ccccc12` [ICA, indole-3-carboxylic acid], the EC50 cytotoxicity is 4.6 µg/mL (≈ 28.5 µM).

Another data set deals with MCF-7 human breast cancer cells.
Conditions: not given
With `O=C(O)c1c[nH]c2ccccc12` [ICA, indole-3-carboxylic acid], the EC50 cytotoxicity was 12.9 µg/mL (≈ 80 µM).

The next data set relates to HIV replication in infected H9 lymphocytes.
Conditions: not given
`O=C(O)c1c[nH]c2ccccc12` [ICA, indole-3-carboxylic acid]: the “IC50 inhibition of HIV replication” value was 16.4 µg/mL.
